The record followed here is patent US9029325B2, “Amylin analogues and pharmaceutical compositions thereof” (Novo Nordisk A/S, priority 2011, dated 2015).

Starred links: 1 amine or outer side, 2 acyl side, 3 side chain; linkers in the order of their positions; H or OH if unused. Positions of bridges follow the written chain, without caps; N, C: chain ends. Residues, ends and D or L forms follow the SMILES beside them. *: point of attachment. C20 diacid = O=C(O)CCCCCCCCCCCCCCCCCCC(=O)*; γGlu = O=C(O)[C@H](CCC(=O)[*:2])N[*:1]

This test is described as follows: Assay (I) efficacy testing on appetite (food intake), ad libitum fed rat model. Type of test: in vivo, Sprague Dawley (SD) rats. The text has this: Sprague Dawley (SD) rats from Taconic Europe, Denmark are used for the experiments. The rats have a body weight 200-250 g at the start of experiment. The rats arrive at least 10-14 days before start of experiment to allow acclimatization to experimental settings. During this period the animals are handled at least 2 times. After arrival rats are housed individually for one week in a reversed light/dark phase (meaning that lights are off during daytime and on during nighttime) […]. Since rats are normally active and eat their major part of their daily food intake during the dark period, rats are dosed in the morning right before lights are turned off. This set-up results in the lowest data variation and highst test sensitivity. The experiment is conducted in the rats' home cages and rats have free access to food and water througout the acclimatization period and the experiment period. Each dose of derivative is tested in a group of 5-8 rats. A vehicle group of 6-8 rats is included in each set of testing. Rats are dosed once according to body weight with a 0.01-3 mg/kg solution administered intraperitoneally (ip), orally (po) or subcutaneously (sc). The time of dosing is recorded for each group. After dosing, the rats are returned to their home cages, where they then have access to food and water. The food consumption is recorded individually continuously by on-line registration or manually every hour for 7 hours, and then after 24 h and sometimes 48 h. At the end of the experimental session, the animals are euthanised.
The individual data are recorded in Microsoft excel sheets. Outliers are excluded after applying the Grubbs statistical evaluation test for outliers, and the result is presented graphically using the GraphPad Prism program.

`CC[C@H](C)[C@H](NC(=O)[C@H](CCC(=O)O)NC(=O)CNC(=O)[C@H](Cc1ccccc1)NC(=O)[C@H](CC(N)=O)NC(=O)[C@H](CC(N)=O)NC(=O)[C@H](CO)NC(=O)[C@H](CO)NC(=O)[C@H](CCCNC(=N)N)NC(=O)[C@H](Cc1c[nH]cn1)NC(=O)[C@H](CC(C)C)NC(=O)[C@H](Cc1ccccc1)NC(=O)[C@H](CCC(=O)O)NC(=O)[C@H](C)NC(=O)[C@H](CC(C)C)NC(=O)[C@H](CCCNC(=N)N)NC(=O)[C@H](CCC(N)=O)NC(=O)[C@@H](NC(=O)[C@H](C)NC(=O)[C@@H]1CSSC[C@H](NC(=O)[C@H](Cc2c[nH]cn2)NC(=O)CC[C@H](NC(=O)CCCCCCCCCCCCCCCCCCC(=O)O)C(=O)O)C(=O)N[C@@H](CC(N)=O)C(=O)N[C@@H]([C@@H](C)O)C(=O)N[C@@H](C)C(=O)N[C@@H]([C@@H](C)O)C(=O)N1)[C@@H](C)O)C(=O)N[C@@H](CC(C)C)C(=O)N[C@@H](CO)C(=O)N[C@@H](CCCNC(=N)N)C(=O)N[C@H](C(=O)N[C@@H](CC(N)=O)C(=O)N[C@H](C(=O)NCC(=O)N[C@@H](CO)C(=O)N[C@@H](CC(N)=O)C(=O)N[C@H](C(=O)N[C@@H](Cc1ccc(O)cc1)C(N)=O)[C@@H](C)O)C(C)C)[C@@H](C)O` [compound 7] ({C20 diacid-γGlu}-HCNTATCATQRLAEFLHRSSNNFGEILSRTNVGSNTY-NH2; disulfide 2-7 (inferred); C-terminus assumed): where the note is “0-24 h”, the “Food intake reduction 0-24 h 3 nmol/kg (%)” value was found to be 53%. Also, the “Food intake reduction 24-48 h 3 nmol/kg (%)” value (24-48 h) is reported as 46%.
The corresponding values for `CC[C@H](C)[C@H](NC(=O)[C@@H]1CCCN1C(=O)CNC(=O)[C@H](Cc1ccccc1)NC(=O)[C@H](CO)NC(=O)[C@H](CO)NC(=O)[C@H](CO)NC(=O)[C@H](CO)NC(=O)[C@H](CCCNC(=N)N)NC(=O)[C@H](Cc1c[nH]cn1)NC(=O)[C@H](CC(C)C)NC(=O)[C@H](Cc1ccccc1)NC(=O)[C@H](CCC(=O)O)NC(=O)[C@H](C)NC(=O)[C@H](CC(C)C)NC(=O)[C@H](CCCNC(=N)N)NC(=O)[C@H](CCC(N)=O)NC(=O)[C@@H](NC(=O)[C@H](C)NC(=O)[C@@H]1CSSC[C@H](NC(=O)[C@H](Cc2c[nH]cn2)NC(=O)CC[C@H](NC(=O)CCCCCCCCCCCCCCCCCCC(=O)O)C(=O)O)C(=O)N[C@@H](CC(N)=O)C(=O)N[C@@H]([C@@H](C)O)C(=O)N[C@@H](C)C(=O)N[C@@H]([C@@H](C)O)C(=O)N1)[C@@H](C)O)C(=O)N[C@@H](CC(C)C)C(=O)N1CCC[C@H]1C(=O)N1CCC[C@H]1C(=O)N[C@H](C(=O)N[C@@H](CC(=O)O)C(=O)N[C@H](C(=O)NCC(=O)N[C@@H](CO)C(=O)N[C@@H](CC(=O)O)C(=O)N[C@H](C(=O)N[C@@H](Cc1ccc(O)cc1)C(N)=O)[C@@H](C)O)C(C)C)[C@@H](C)O` [compound 9] ({C20 diacid-γGlu}-HCNTATCATQRLAEFLHRSSSSFGPILPPTDVGSDTY-NH2; disulfide 2-7 (inferred); C-terminus assumed) are 39% and 32%.
In the case of `CC[C@H](C)[C@H](NC(=O)[C@@H]1CCCN1C(=O)CNC(=O)[C@H](Cc1ccccc1)NC(=O)[C@H](CC(N)=O)NC(=O)[C@H](CC(N)=O)NC(=O)[C@H](CO)NC(=O)[C@H](CO)NC(=O)[C@H](Cc1c[nH]cn1)NC(=O)[C@H](CCCNC(=N)N)NC(=O)[C@H](CC(C)C)NC(=O)[C@H](Cc1ccccc1)NC(=O)[C@H](CCC(=O)O)NC(=O)[C@H](C)NC(=O)[C@H](CC(C)C)NC(=O)[C@H](CCCNC(=N)N)NC(=O)[C@H](CCC(N)=O)NC(=O)[C@@H](NC(=O)[C@H](C)NC(=O)[C@@H]1CSSC[C@H](NC(=O)[C@H](Cc2c[nH]cn2)NC(=O)[C@H](Cc2c[nH]cn2)NC(=O)[C@H](Cc2c[nH]cn2)NC(=O)CC[C@H](NC(=O)CCCCCCCCCCCCCCCCCCC(=O)O)C(=O)O)C(=O)N[C@@H](CC(N)=O)C(=O)N[C@@H]([C@@H](C)O)C(=O)N[C@@H](C)C(=O)N[C@@H]([C@@H](C)O)C(=O)N1)[C@@H](C)O)C(=O)N[C@@H](CC(C)C)C(=O)N1CCC[C@H]1C(=O)N1CCC[C@H]1C(=O)N[C@H](C(=O)N[C@@H](CC(N)=O)C(=O)N[C@H](C(=O)NCC(=O)N[C@@H](CO)C(=O)N[C@@H](CC(N)=O)C(=O)N[C@H](C(=O)N[C@@H](Cc1ccc(O)cc1)C(N)=O)[C@@H](C)O)C(C)C)[C@@H](C)O` [compound 12] ({C20 diacid-γGlu}-HHHCNTATCATQRLAEFLRHSSNNFGPILPPTNVGSNTY-NH2; disulfide 4-9), the “Food intake reduction 0-24 h 30 nmol/kg (%)” value (30 nmol/kg, 0-24 h) came out at 70%. The “Food intake reduction 24-48 h 30 nmol/kg (%)” value (30 nmol/kg, 24-48 h) amounted to 45%.
As to `CC[C@H](C)[C@H](NC(=O)[C@@H]1CCCN1C(=O)CNC(=O)[C@H](Cc1ccccc1)NC(=O)[C@H](CC(N)=O)NC(=O)[C@H](CC(N)=O)NC(=O)[C@H](CO)NC(=O)[C@H](CO)NC(=O)[C@H](CCCNC(=N)N)NC(=O)[C@@H](NC(=O)[C@H](CC(C)C)NC(=O)[C@H](Cc1ccccc1)NC(=O)[C@H](CCC(=O)O)NC(=O)[C@H](C)NC(=O)[C@H](CC(C)C)NC(=O)[C@H](CCCNC(=N)N)NC(=O)[C@H](CCC(N)=O)NC(=O)[C@@H](NC(=O)[C@H](C)NC(=O)[C@@H]1CSSC[C@H](NC(=O)[C@H](Cc2c[nH]cn2)NC(=O)CC[C@H](NC(=O)CCCCCCCCCCCCCCCCCCC(=O)O)C(=O)O)C(=O)N[C@@H](CC(N)=O)C(=O)N[C@@H]([C@@H](C)O)C(=O)N[C@@H](C)C(=O)N[C@@H]([C@@H](C)O)C(=O)N1)[C@@H](C)O)C(C)C)C(=O)N[C@@H](CC(C)C)C(=O)N1CCC[C@H]1C(=O)N1CCC[C@H]1C(=O)N[C@H](C(=O)N[C@@H](CC(N)=O)C(=O)N[C@H](C(=O)NCC(=O)N[C@@H](CO)C(=O)N[C@@H](CC(N)=O)C(=O)N[C@H](C(=O)N[C@@H](Cc1ccc(O)cc1)C(N)=O)[C@@H](C)O)C(C)C)[C@@H](C)O` [compound 15] ({C20 diacid-γGlu}-HCNTATCATQRLAEFLVRSSNNFGPILPPTNVGSNTY-NH2; disulfide 2-7 (inferred); C-terminus assumed), the “Food intake reduction 0-24 h 3 nmol/kg (%)” value (0-24 h) stood at 56%. Besides, the “Food intake reduction 24-48 h 3 nmol/kg (%)” value (24-48 h) turned out to be 59%.
Regarding `CC[C@H](C)[C@H](NC(=O)[C@@H]1CCCN1C(=O)CNC(=O)[C@H](Cc1ccccc1)NC(=O)[C@H](CC(N)=O)NC(=O)[C@H](CC(N)=O)NC(=O)[C@H](CO)NC(=O)[C@H](CO)NC(=O)[C@H](Cc1c[nH]cn1)NC(=O)[C@H](Cc1c[nH]cn1)NC(=O)[C@H](CC(C)C)NC(=O)[C@H](Cc1ccccc1)NC(=O)[C@H](CCC(=O)O)NC(=O)[C@H](C)NC(=O)[C@H](CC(C)C)NC(=O)[C@H](CCCNC(=N)N)NC(=O)[C@H](CCC(N)=O)NC(=O)[C@@H](NC(=O)[C@H](C)NC(=O)[C@@H]1CSSC[C@H](NC(=O)[C@H](Cc2c[nH]cn2)NC(=O)[C@H](Cc2c[nH]cn2)NC(=O)CC[C@H](NC(=O)CCCCCCCCCCCCCCCCCCC(=O)O)C(=O)O)C(=O)N[C@@H](CC(N)=O)C(=O)N[C@@H]([C@@H](C)O)C(=O)N[C@@H](C)C(=O)N[C@@H]([C@@H](C)O)C(=O)N1)[C@@H](C)O)C(=O)N[C@@H](CC(C)C)C(=O)N1CCC[C@H]1C(=O)N1CCC[C@H]1C(=O)N[C@H](C(=O)N[C@@H](CC(N)=O)C(=O)N[C@H](C(=O)NCC(=O)N[C@@H](CO)C(=O)N[C@@H](CC(N)=O)C(=O)N[C@H](C(=O)N[C@@H](Cc1ccc(O)cc1)C(N)=O)[C@@H](C)O)C(C)C)[C@@H](C)O` [compound 17] ({C20 diacid-γGlu}-HHCNTATCATQRLAEFLHHSSNNFGPILPPTNVGSNTY-NH2; disulfide 3-8 (inferred); C-terminus assumed), under “0-24 h”, the “Food intake reduction 0-24 h 3 nmol/kg (%)” value turned out to be 40%. Moreover, the “Food intake reduction 24-48 h 3 nmol/kg (%)” value (24-48 h) stood at 22%.
The corresponding values for `CC[C@H](C)[C@H](NC(=O)[C@@H]1CCCN1C(=O)CNC(=O)[C@H](Cc1ccccc1)NC(=O)[C@H](CC(N)=O)NC(=O)[C@H](CC(N)=O)NC(=O)[C@H](CO)NC(=O)[C@H](CO)NC(=O)[C@H](Cc1c[nH]cn1)NC(=O)[C@H](Cc1c[nH]cn1)NC(=O)[C@H](CC(C)C)NC(=O)[C@H](Cc1ccccc1)NC(=O)[C@H](CCC(=O)O)NC(=O)[C@H](C)NC(=O)[C@H](CC(C)C)NC(=O)[C@H](CCCNC(=N)N)NC(=O)[C@H](CCC(N)=O)NC(=O)[C@@H](NC(=O)[C@H](C)NC(=O)[C@@H]1CSSC[C@H](NC(=O)[C@H](Cc2c[nH]cn2)NC(=O)CC[C@H](NC(=O)CCCCCCCCCCCCCCCCCCC(=O)O)C(=O)O)C(=O)N[C@@H](CC(N)=O)C(=O)N[C@@H]([C@@H](C)O)C(=O)N[C@@H](C)C(=O)N[C@@H]([C@@H](C)O)C(=O)N1)[C@@H](C)O)C(=O)N[C@@H](CC(C)C)C(=O)N1CCC[C@H]1C(=O)N1CCC[C@H]1C(=O)N[C@H](C(=O)N[C@@H](CC(N)=O)C(=O)N[C@H](C(=O)NCC(=O)N[C@@H](CO)C(=O)N[C@@H](CC(N)=O)C(=O)N[C@H](C(=O)N[C@@H](Cc1ccc(O)cc1)C(N)=O)[C@@H](C)O)C(C)C)[C@@H](C)O` [compound 18] ({C20 diacid-γGlu}-HCNTATCATQRLAEFLHHSSNNFGPILPPTNVGSNTY-NH2; disulfide 2-7) are 40% and 32%.
